Experimental findings from patent EP2508526A1, “Spiroalkene carboxamide derivatives and their use as chemokine receptor modulators” (Ares Trading SA, priority 2011, dated 2012) are described below.

Structures can show the parent of a compound that is named as a salt.

For the experiment, the target named is T1, hCCR2b (Homo sapiens, UniProt P41597).
T1 sequence (P41597 1-360 isoform P41597-2): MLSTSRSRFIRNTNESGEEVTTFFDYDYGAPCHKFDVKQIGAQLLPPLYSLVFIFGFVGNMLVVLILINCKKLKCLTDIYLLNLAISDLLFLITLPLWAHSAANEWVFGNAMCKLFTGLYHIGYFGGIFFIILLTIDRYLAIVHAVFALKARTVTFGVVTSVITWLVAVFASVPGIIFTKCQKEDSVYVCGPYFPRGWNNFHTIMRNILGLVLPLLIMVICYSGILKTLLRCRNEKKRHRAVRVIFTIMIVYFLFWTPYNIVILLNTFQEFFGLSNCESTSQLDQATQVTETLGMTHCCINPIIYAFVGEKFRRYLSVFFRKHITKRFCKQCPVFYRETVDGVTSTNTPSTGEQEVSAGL
The experiment can be described thus: CCR2 binding assay ([125I]MCP-1, SPA, CHO cell membranes). To be noted: membranes from CHO cells expressing hCCR2b, 50 pM [125I]MCP-1; read-out: Binding hCCR2 (Ki). Set-up: expressed in transfected cells; host or cells: CHO cells (membrane preparation). The protocol:
Membranes were prepared from CHO cells expressing mCCR2b or hCCR2b for use in ligand binding studies. Cells were suspended in 50mM Tris-HCL, pH 7.4, 2 mM EDTA, 250 mM Sucrose and 1x Complete EDTA-free protease inhibitor cocktail (Roche) (Buffer A), and disrupted at 4°C by N2 decompression using a cell disruption bomb (Parr Instrument). Following centrifugation at 200 RCF for 10 min at 4°C, the supernatant was suspended in buffer A and centrifuged again at 19000 RPM (RCSC rotor SS34 code 05 Sorvall Instruments DUPONT) for 90 min at 4°C. The pellet was then suspended in 10 mM HEPES, pH 7.4, 1 mM EDTA, 250 mM Sucrose, and 1x Complete EDTA-free protease inhibitor cocktail (Buffer B) and homogenized using a potter. Membranes were flash frozen in liquid N2 and stored at -80°C. [125I] Monocyte Chemoattractant Protein -1 (MCP-1) (25µCi; Perkin Elmer) was added to test compounds in DMSO (1% final). Membranes and WGA SPA beads (GE Healthcare) were added to give a final volume of 100 µl in 96-well plates with assay concentrations of 50 pM or 100 pM [125I]Monocyte Chemoattractant Protein -1 (respectively for hCCR2b or mCCR2b), 50 mM HEPES, pH 7.4, 5 mM MgCl2, 1 mM CaCl2, 0.1% BSA, 1-5 µg/well of membranes and 100 µg/well of WGA SPA beads. Binding was performed for 90 min at RT with strong agitation of speed 5 (Heidolph Titramax 100 SCITEC) and bound radioactivity was measured on a PerkinElmer 1450 MicroBeta counter. Specific binding was calculated by subtracting remaining radioactivity in the presence of 1000-fold excess of unlabeled compound. Binding data were analyzed using the Genedata Screener® software.

For orientation: Ki means the equilibrium dissociation constant of an inhibitor or competing ligand from its target. For `CCN1CCC2(CC1)OC(=O)C(C)=C2C(=O)N1CCCN(c2cccc(F)c2)CC1` [Compound 52, 8-ethyl-4-{[4-(3-fluorophenyl)-1,4-diazepan-1-yl]carbonyl}-3-methyl-1-oxa-8-azaspiro[4.5]dec-3-en-2-one], the Ki is 500 to 2000 nM.

Take `CCN1CCC2(CC1)OC(=O)C(C)=C2C(=O)N1CCc2ccc(F)cc2C1` [Compound 53, 8-ethyl-4-[(7-fluoro-3,4-dihydroisoquinolin-2(1H)-yl)carbonyl]-3-methyl-1-oxa-8-azaspiro[4.5]dec-3-en-2-one]: the Ki lay within 100 to 500 nM.

In the case of `CCN1CCC2(CC1)OC(=O)C(C)=C2C(=O)N1CCc2cc(C(F)(F)F)ccc2C1` [Compound 54, 8-ethyl-3-methyl-4-{[6-(trifluoromethyl)-3,4-dihydroisoquinolin-2 (1H)-yl]carbonyl}-1-oxa-8-azaspiro[4.5]dec-3-en-2-one], the inhibition constant (Ki) was below 50 nM.

`CCN1CCC2(CC1)OC(=O)C(C)=C2C(=O)N1CCC(c2cccc(C(F)(F)F)c2)C1` (stereo not shown) [Compound 55, 8-ethyl-3-methyl-4-({3-[3-(trifluoromethyl)phenyl]pyrrolidin-1-yl}carbonyl)-1-oxa-8-azaspiro[4.5]dec-3-en-2-one]: the Ki was 100 to 500 nM.

Consider `CCN1CCC2(CC1)OC(=O)C(C)=C2C(=O)NCC(=O)Nc1cccc(C(F)(F)F)c1` [Compound 56, 8-ethyl-3-methyl-2-oxo-N-(2-oxo-2-{[3-(trifluoromethyl)phenyl]amino}ethyl)-1-oxa-8-azaspiro[4.5]dec-3-ene-4-carboxamide], for which the Ki was below 50 nM.

In the case of `CCN1CCC2(CC1)OC(=O)C(C)=C2C(=O)N1CCN(CCc2ccc(F)cc2)CC1` [Compound 58, 8-ethyl-4-({4-[2-(4-fluorophenyl)ethyl]piperazin-1-yl}carbonyl)-3-methyl-1-oxa-8-azaspiro[4.5]dec-3-en-2-one], the Ki lay in the range of 100 to 500 nM.

Take `CCN1CCC2(CC1)OC(=O)C(C)=C2C(=O)N1CCC(Nc2cccc(C(F)(F)F)c2)CC1` [Compound 59, 8-ethyl-3-methyl-4-[(4-{[3-(trifluoromethyl)phenyl]amino}piperidin-1-yl)carbonyl]-1-oxa-8-azaspiro[4.5]dec-3-en-2-one]: the Ki fell in the range of 500 to 2000 nM.

On to `CCN1CCC2(CC1)OC(=O)C(C)=C2C(=O)N1CCN(c2cncc(C(F)(F)F)c2)CC1` [Compound 60, 8-ethyl-3-methyl-4-({4-[5-(trifluoromethyl)pyridin-3-yl]piperazin-1-yl}carbonyl)-1-oxa-8-azaspiro[4.5]dec-3-en-2-one], for which the Ki lay in the range of 50 to 100 nM.

For `COc1ccccc1CCN1CCC2(CC1)OC(=O)C(C)=C2C(=O)N1CCN(c2cccc(C(F)(F)F)c2)CC1` [Compound 63, 8-[2-(2-methoxyphenyl)ethyl]-3-methyl-4-({4-[3-(trifluoromethyl)phenyl]piperazin-1-yl}carbonyl)-1-oxa-8-azaspiro[4.5]dec-3-en-2-one], the Ki was below 50 nM.

`CC1=C(C(=O)NCc2ccc(C(F)(F)F)cc2)C2(CCN(C(C)C)CC2)OC1=O` [Compound 64, 8-isopropyl-3-methyl-2-oxo-N-[4-(trifluoromethyl)benzyl]-1-oxa-8-azaspiro[4.5]dec-3-ene-4-carboxamide]: the Ki lay in the range of 500 to 2000 nM.

Take `COc1ccccc1CCN1CCC2(CC1)OC(=O)C(C)=C2C(=O)N1CCc2ccc(C(F)(F)F)cc2C1` [Compound 65, 8-[2-(2-methoxyphenyl)ethyl]-3-methyl-4-{[7-(trifluoromethyl)-3,4-dihydroisoquinolin-2(1H)-yl]carbonyl}-1-oxa-8-azaspiro[4.5]dec-3-en-2-one]: the Ki was below 50 nM.

`CCN1CCC2(CC1)OC(=O)C(C)=C2C(=O)Nc1cnn(-c2ccc(C(F)(F)F)cc2)c1` [Compound 67, 8-ethyl-3-methyl-2-oxo-N-{1-[4-(trifluoromethyl)phenyl]-1H-pyrazol-4-yl}-1-oxa-8-azaspiro[4.5]dec-3-ene-4-carboxamide]: the Ki lay within 500 to 2000 nM.

Take `CCN1CCC2(CC1)OC(=O)C(C)=C2C(=O)N1CCN(c2cccc(C)c2)CC1` [Compound 68, 8-ethyl-3-methyl-4-{[4-(3-methylphenyl)piperazin-1-yl]carbonyl}-1-oxa-8-azaspiro[4.5]dec-3-en-2-one]: the Ki fell in the range of 500 to 2000 nM.

On to `CC1=C(C(=O)NCC(=O)Nc2cccc(C(F)(F)F)c2)C2(CCN(C3CCOCC3)CC2)OC1=O` [Compound 69, 3-methyl-2-oxo-N-(2-oxo-2-{[3-(trifluoromethyl)phenyl]amino}ethyl)-8-(tetrahydro-2H-pyran-4-yl)-1-oxa-8-azaspiro[4.5]dec-3-ene-4-carboxamide], for which the Ki was below 50 nM.

As to `CCN1CCC2(CC1)OC(=O)C(C)=C2C(=O)N1CCN(c2cc(C(F)(F)F)ccn2)CC1` [Compound 70, 8-ethyl-3-methyl-4-({4-[4-(trifluoromethyl)pyridin-2-yl]piperazin-1-yl}carbonyl)-1-oxa-8-azaspiro[4.5]dec-3-en-2-one], the Ki is below 50 nM.

In the case of `CCN1CCC2(CC1)OC(=O)C(C)=C2C(=O)N1C[C@@H]2C[C@H]1CN2c1cc(C(F)(F)F)ccn1` [Compound 71, 8-ethyl-3-methyl-4-({(1S,4S)-5-[4-(trifluoromethyl)pyridin-2-yl]-2,5-diazabicyclo[2.2.1]hept-2-yl}carbonyl)-1-oxa-8-azaspiro[4.5]dec-3-en-2-one], the inhibition constant (Ki) is below 50 nM.

Turning to `CCN1CCC2(CC1)OC(=O)C(C)=C2C(=O)N1C[C@@H]2C[C@H]1CN2c1nccc(C(F)(F)F)n1` [Compound 72, 8-ethyl-3-methyl-4-({(1S,4S)-5-[4-(trifluoromethyl)pyrimidin-2-yl]-2.5-diazabicyclo[2.2.1]hept-2-yl}carbonyl)-1-oxa-8-azaspiro[4.5]dec-3-en-2-one], the Ki was below 50 nM.

Consider `CCN1CCC2(CC1)OC(=O)C(C)=C2C(=O)Nc1ccc(-n2ccc(C(F)(F)F)n2)cc1` [Compound 75, 8-ethyl-3-methyl-2-oxo-N-{4-[3-(trifluoromethyl)-1H-pyrazol-1-yl]phenyl}-1-oxa-8-azaspiro[4.5]dec-3-ene-4-carboxamide], for which the Ki is 500 to 2000 nM.

In the case of `CC1=C(C(=O)N2CCc3ccc(C(F)(F)F)cc3C2)C2(CCNCC2)OC1=O` [Compound 76, 3-methyl-4-{[7-(trifluoromethyl)-3,4-dihydroisoquinolin-2(1H)-yl]carbonyl}-1-oxa-8-azaspiro[4.5]dec-3-en-2-one, hydrocloride salt], the Ki was below 50 nM.

With `CC1=C(C(=O)N2CCc3ccc(C(F)(F)F)cc3C2)C2(CCN(C(C)(C)C)CC2)OC1=O` [Compound 77, 8-tert-butyl-3-methyl-4-{[7-(trifluoromethyl)-3,4-dihydroisoquinolin-2(1H)-yl]carbonyl}-1-oxa-8-azaspiro[4.5]dec-3-en-2-one], the Ki is below 50 nM.

In the case of `CC1=C(C(=O)N2CCc3ncc(C(F)(F)F)cc3C2)C2(CCNCC2)OC1=O` [Compound 78, 3-methyl-4-{[3-(trifluoromethyl)-7,8-dihydro-1,6-naphthyridin-6(5H)-yl]carbonyl}-1-oxa-8-azaspiro[4.5]dec-3-en-2-one, hydrocloride salt], the inhibition constant (Ki) fell in the range of 100 to 500 nM.

With `CCN1CCC2(CC1C)OC(=O)C(C)=C2C(=O)N1CCc2ccc(C(F)(F)F)cc2C1` (stereo not shown) [Compound 79, 8-ethyl-3,7-dimethyl-4-{[7-(trifluoromethyl)-3,4-dihydroisoquinolin-2(1H)-yl]carbonyl}-1-oxa-8-azaspiro[4.5]dec-3-en-2-one], the Ki was below 50 nM.
